# PMC12260939, “Radiosynthesis and Evaluation of ^11C‑Labeled Imidazolyl Pyrimidine Derivatives for Positron Emission Tomography Imaging of Glycogen Synthase Kinase‑3” (ACS Pharmacology & Translational Science, 2025)
# What was measured:
# CYP2C9 = CYP2C9 (Homo sapiens, UniProt P11712); assay: CYP2C9 inhibition; type: in vitro ADME
# Experimental: (§1) The inhibitory properties of 13a–13e on four cytochrome P450 isoforms (CYP1A2, CYP2C9, CYP2D6 and CYP3A4) were greater than 2 μM.
# [1] = Unbound fraction in brain (fu brain); type: in vitro ADME
# Experimental: (§2) Multiparameter optimization (MPO) and brain/plasma concentration at steady-state (logBB) are widely used to predict BBB permeability. […] A detailed ADME/PK (absorption, distribution, metabolism, excretion and pharmacokinetics) profiling was conducted, and the results are listed in Table . […] These values meet the standards that BBB permeability is considered high if Papp A–B is ≥ 3.0 × 10^–6 cm/s and the efflux ratio is <3.0.
# Solubility = type: physicochemical; conditions: in dry DMSO at pH = 7.4
# Experimental: as §2
# hERG channel = hERG channel (Homo sapiens, UniProt Q12809); assay: hERG channel inhibition; conditions: human
# Sequence of hERG channel (Q12809 whole entry): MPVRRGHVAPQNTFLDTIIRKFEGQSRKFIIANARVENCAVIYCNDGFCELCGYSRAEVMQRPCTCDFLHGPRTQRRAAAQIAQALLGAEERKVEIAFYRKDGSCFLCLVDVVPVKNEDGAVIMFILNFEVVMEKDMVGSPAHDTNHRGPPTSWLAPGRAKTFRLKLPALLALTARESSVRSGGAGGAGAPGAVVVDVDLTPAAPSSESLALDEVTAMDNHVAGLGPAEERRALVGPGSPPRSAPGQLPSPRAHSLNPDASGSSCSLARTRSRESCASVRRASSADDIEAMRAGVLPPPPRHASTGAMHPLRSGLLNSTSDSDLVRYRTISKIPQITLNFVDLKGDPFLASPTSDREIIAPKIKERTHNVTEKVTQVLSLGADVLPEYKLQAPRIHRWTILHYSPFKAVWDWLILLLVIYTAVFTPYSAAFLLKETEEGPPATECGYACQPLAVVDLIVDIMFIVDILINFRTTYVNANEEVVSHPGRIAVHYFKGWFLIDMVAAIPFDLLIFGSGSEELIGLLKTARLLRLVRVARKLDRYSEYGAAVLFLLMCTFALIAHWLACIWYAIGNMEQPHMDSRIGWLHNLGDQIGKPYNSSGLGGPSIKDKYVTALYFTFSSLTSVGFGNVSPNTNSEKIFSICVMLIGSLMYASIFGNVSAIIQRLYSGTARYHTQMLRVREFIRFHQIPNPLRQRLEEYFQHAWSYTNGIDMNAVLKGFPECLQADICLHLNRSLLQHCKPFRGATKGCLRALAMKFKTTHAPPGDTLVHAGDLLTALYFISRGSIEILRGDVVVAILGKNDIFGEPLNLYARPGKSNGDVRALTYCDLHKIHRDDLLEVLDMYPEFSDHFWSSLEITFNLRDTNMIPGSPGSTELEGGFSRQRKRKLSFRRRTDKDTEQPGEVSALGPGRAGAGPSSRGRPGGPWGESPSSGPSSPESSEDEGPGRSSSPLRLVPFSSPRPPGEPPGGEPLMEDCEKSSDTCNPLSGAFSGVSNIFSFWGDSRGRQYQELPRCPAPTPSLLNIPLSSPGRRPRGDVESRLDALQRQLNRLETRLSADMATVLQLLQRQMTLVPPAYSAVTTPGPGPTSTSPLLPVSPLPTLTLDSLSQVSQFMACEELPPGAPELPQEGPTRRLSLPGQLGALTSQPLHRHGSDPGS
# GSK-3 [2] = assay: Radioligand saturation binding assay with tritiated ligands in hippocampal membranes; set-up: species or system Sprague–Dawley rat; conditions: tritiated ligand, hippocampus of SD rat brains
# Experimental: The pharmacology and physicochemical properties of compounds 13a–13e are depicted in Table . To evaluate binding affinities, saturation binding assays using tritiated ligands [^3H]13a, [^3H]13c, [^3H]13d, [^3H]13e (Scheme S1) were performed using the hippocampal tissue of Sprague–Dawley (SD) rat brains. As depicted in Table A, total binding (TB), nonspecific binding (NSB), and specific binding (SB) of the respective tritiated ligands were measured with increasing concentrations of the radioligands. The dissociation constant (Kd) and capacity (B max) of each radioligand were calculated to confirm their binding affinity.
# For membrane preparation, hippocampal tissue from adult rats (Sprague–Dawley) was dissected out, weighed, and frozen in 0.32 M sucrose at −70 °C. On the experiment day, the tissue was thawed, homogenized in 50 mM Tris, 5 mM EDTA (pH 7.4) and then centrifuged at 48 000 xg for 15 min at +4 °C. The pellet was diluted in binding buffer (50 mM Tris, 4 mM MgCl2, 1 mM EDTA pH 7.4) to a final concentration of 2.5 mg w.w./mL. Saturation binding experiments were performed in duplicate, with each tube containing 1 mg w.w. in 0.5 mL binding buffer and 0.1 – 17 nM (11–12 concentrations) of radioligand. Nonspecific binding was measured by adding 10 μM AR-A014418. The assays were incubated for 2–3 h at room temperature and terminated by quick filtration using Whatman GF/B filters pretreated with 0.3% polyethylenimine on a Brandel cell harvester. Radioactivity was measured with a Packard Tri-Carb 2900TR liquid scintillation counter, and data were processed by nonlinear regression analyses using PRISM 4.03.
# CYP3A4 = CYP3A4 (Homo sapiens, UniProt P08684); assay: CYP3A4 inhibition; type: in vitro ADME
# Sequence of CYP3A4 (P08684 whole entry, species assumed): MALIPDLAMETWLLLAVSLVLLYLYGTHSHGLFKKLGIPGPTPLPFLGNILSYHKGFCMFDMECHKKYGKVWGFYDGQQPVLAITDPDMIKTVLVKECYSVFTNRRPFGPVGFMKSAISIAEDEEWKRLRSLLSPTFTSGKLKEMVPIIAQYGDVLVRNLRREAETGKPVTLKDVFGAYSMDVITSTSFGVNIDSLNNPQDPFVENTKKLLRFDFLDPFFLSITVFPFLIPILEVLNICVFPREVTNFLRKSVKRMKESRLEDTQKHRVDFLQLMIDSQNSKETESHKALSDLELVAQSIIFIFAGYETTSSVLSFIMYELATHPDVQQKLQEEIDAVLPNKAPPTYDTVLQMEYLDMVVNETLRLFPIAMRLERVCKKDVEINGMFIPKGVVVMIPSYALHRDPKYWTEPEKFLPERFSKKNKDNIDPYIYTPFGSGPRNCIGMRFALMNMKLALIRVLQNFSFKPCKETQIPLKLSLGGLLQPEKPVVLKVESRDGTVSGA
# Experimental: as §1
# [3] = Intrinsic clearance (CLint); type: in vitro ADME; conditions: cells (cell type not named); read-out: median CLint
# CYP2D6 = CYP2D6 (Homo sapiens, UniProt P10635); assay: CYP2D6 inhibition; type: in vitro ADME
# Sequence of CYP2D6 (P10635 whole entry, species assumed): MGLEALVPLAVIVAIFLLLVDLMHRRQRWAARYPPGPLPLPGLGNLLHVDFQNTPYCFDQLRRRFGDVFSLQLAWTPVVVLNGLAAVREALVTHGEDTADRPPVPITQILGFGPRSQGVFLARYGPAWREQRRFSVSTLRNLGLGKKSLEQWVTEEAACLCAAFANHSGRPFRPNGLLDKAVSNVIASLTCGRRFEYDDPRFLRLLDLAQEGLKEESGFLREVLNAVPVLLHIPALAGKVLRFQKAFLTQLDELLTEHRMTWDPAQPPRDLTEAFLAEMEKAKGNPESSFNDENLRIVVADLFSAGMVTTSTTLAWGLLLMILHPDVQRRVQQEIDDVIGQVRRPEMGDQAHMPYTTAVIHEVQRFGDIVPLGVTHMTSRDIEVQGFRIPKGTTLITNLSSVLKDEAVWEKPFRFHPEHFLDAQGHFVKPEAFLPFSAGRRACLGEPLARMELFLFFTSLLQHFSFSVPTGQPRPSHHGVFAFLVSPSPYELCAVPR
# Experimental: as §1
# human recombinant GSK3β = human recombinant GSK3β (Homo sapiens, UniProt P49841); assay: GSK3β scintillation proximity assay (SPA), inhibition of kinase activity; type: biochemical; conditions: for Ki: GSK-3β, calculated via the Cheng-Prusoff equation; for IC50: SPA, 1 μM ATP
# Sequence of human recombinant GSK3β (P49841 whole entry): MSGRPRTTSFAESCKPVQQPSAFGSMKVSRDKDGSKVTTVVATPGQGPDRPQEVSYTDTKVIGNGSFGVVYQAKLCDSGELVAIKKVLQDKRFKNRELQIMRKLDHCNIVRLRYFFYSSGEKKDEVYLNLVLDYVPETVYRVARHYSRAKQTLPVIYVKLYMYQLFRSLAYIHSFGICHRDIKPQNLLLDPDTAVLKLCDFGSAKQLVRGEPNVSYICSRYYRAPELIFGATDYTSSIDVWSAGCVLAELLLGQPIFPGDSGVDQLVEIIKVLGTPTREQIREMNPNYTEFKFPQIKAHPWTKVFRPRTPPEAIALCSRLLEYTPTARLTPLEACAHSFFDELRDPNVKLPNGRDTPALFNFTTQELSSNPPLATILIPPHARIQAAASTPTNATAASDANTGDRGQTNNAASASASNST
# Experimental: The inhibition of GSK3β activity is assessed using a scintillation proximity assay (SPA) in a 96-well microtiter plate format. The assay utilizes purified human recombinant GSK3β enzyme (∼1 nM active), [γ-^33P]-ATP (0.04 μCi), and a biotinylated peptide substrate (Biotin-[…](PO3H2)-PQL) at a final concentration of 2 μM. Reactions are carried out in an assay buffer containing MOPS, EDTA, β-mercaptoethanol, Brij 35, glycerol, and BSA, and preincubated for 10–15 min at room temperature. Inhibitor testing is conducted in duplicate using 10 different concentrations. The kinase reaction is initiated by adding ATP (1 μM final) in the presence of 50 mM Mg(Ac)2. After a 15 min incubation at room temperature, the reaction is terminated by adding a solution (25 μL) containing 5 mM EDTA, 50 μM ATP, 0.1% Triton X-100, and 10 mg/mL streptavidin-coated SPA beads, followed by the addition of distilled water (50 μL). After a 6-h incubation, bound radioactivity is measured using a MicroBeta Trilux liquid scintillation counter (1450 MicroBeta Trilux, Wallac). Data are analyzed using nonlinear regression with variable slope (GraphPad Prism or Excel Fit), and results are reported as Ki values calculated via the Cheng-Prusoff equation.
# CYP1A2 = target: T1, CYP1A2 (Homo sapiens, UniProt P05177); assay: CYP1A2 inhibition; type: in vitro ADME
# T1 sequence (P05177 1-516): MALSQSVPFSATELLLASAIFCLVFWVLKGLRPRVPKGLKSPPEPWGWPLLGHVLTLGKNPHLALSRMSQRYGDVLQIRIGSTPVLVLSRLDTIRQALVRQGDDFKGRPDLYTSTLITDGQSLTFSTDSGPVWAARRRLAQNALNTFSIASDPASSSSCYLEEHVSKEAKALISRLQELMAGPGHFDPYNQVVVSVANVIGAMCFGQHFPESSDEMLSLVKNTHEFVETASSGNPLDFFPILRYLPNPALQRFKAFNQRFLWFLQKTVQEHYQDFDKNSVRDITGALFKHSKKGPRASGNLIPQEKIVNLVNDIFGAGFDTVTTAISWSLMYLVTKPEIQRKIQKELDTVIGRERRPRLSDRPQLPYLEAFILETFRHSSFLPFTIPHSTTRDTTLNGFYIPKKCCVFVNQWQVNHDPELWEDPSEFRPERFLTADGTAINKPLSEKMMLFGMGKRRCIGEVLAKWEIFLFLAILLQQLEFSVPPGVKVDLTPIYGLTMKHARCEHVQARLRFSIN
# Experimental: as §1
# [4] = Pharmacokinetics: half-life and bioavailability; conditions: in vivo; for half-life: read-out: mean t 1/2 (converted)
# [5] = Apparent permeability (Papp A-B) and efflux ratio; type: in vitro ADME; conditions: for efflux ratio: not told, Papp B–A/Papp A–B
# Experimental: as §2
# Protein binding (% free) = type: in vitro ADME; conditions: read-out: mean Prot binding (% free)
# GSK-3β = assay: In vitro autoradiography on rat brain tissue sections; type: binding; conditions: for blocking of [^3H]13a–13e binding in autoradiography: co-incubation, blocker 3 μM
# Experimental: In the next step, we performed in vitro autoradiography studies on rat brain tissue sections to investigate the binding selectivity and distribution of compounds [^3H]13a–13e (Figure ). […] These findings support the potential of this compound series for further development as GSK-3β-targeted neuroimaging probes.
# In vitro autoradiography was conducted on 10 μm thick cry-cut tissue sections of rat tissue that had been thaw-mounted onto microscope slides. The brain sections were incubated in 50 mM Tris-HCl buffer at room temperature and then incubated with [^3H]-ligand for 30 min. The sections were rinsed three times for 10 min each in Tris buffer at 1 °C, followed by a quick rinse in deionized water at 1 °C, and then air-dried at room temperature with a fan. The radiolabeled sections and Amersham plastic tritium standards were then exposed to phosphoimager plates (Fuji BAS-TR2040) overnight. Blocking studies were conducted using a 1000-fold excess of the cold reference compounds, and validated GSK-3β inhibitors AR-A014418 and SB-216763. […] This micromolar concentration is consistent with established methods for GSK-3 radioligand autoradiography blocking experiments.
# GSK-3 [6] = conditions: earlier reports, rodents and/or NHPs; cited from earlier work
# GSK-3 [7] = conditions: literature value for earlier GSK-3 PET ligand; cited from earlier work
# Sequence of CYP2C9 (P11712 whole entry, species assumed, canonical isoform): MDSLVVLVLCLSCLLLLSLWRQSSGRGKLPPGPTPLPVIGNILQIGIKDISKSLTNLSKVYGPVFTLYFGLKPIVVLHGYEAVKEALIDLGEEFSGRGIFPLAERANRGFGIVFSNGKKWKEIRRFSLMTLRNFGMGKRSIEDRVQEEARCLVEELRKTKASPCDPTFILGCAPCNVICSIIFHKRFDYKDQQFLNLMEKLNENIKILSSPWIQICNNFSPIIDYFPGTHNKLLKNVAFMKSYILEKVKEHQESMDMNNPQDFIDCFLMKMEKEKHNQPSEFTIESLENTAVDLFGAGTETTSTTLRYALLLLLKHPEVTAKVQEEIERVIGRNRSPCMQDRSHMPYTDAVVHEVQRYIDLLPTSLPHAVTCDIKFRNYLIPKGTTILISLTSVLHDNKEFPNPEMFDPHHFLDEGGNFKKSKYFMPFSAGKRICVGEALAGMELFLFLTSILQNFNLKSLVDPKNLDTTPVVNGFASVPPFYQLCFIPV
smiles,measurement,setting,value
Cc1ncc(-c2nc(Nc3ccc(C(=O)N4CCCCC4)c(Cl)c3)ncc2F)n1C1CCOCC1 [13a],IC50,CYP2C9,> 2000 nM
same,fraction unbound,[1],0.036
same,solubility,Solubility,234 µM
same,IC50,hERG channel,4520 nM
same,Kd,GSK-3 [2],1.09 nM
same,IC50,CYP3A4,> 2000 nM
same,hepatocyte CLint,[3],34.2 µL/min/1e6 cells
same,IC50,CYP2D6,> 2000 nM
same,Ki,human recombinant GSK3β,2.49 nM
same,IC50,human recombinant GSK3β,3.31 nM
same,IC50,CYP1A2,> 2000 nM
Cc1ncc(-c2nc(Nc3ccc(C(=O)N(C)C)c(Cl)c3)ncc2F)n1C1CCOCC1 [13b],bioavailability,[4],39.8%
same,half-life,[4],2.32 h
same,IC50,CYP2C9,> 2000 nM
same,fraction unbound,[1],0.13
same,P app A-B,[5],22.7 × 10^–6 cm/s
same,efflux ratio,[5],1.2
same,solubility,Solubility,155 µM
same,IC50,hERG channel,18800 nM
same,IC50,CYP3A4,> 2000 nM
same,hepatocyte CLint,[3],17.5 µL/min/1e6 cells
same,IC50,CYP2D6,> 2000 nM
same,Ki,human recombinant GSK3β,3.01 nM
same,IC50,human recombinant GSK3β,4.01 nM
same,IC50,CYP1A2,> 2000 nM
same,fraction unbound,Protein binding (% free),0.056
Cc1cc(Nc2ncc(F)c(-c3cnc(C)n3C3CCOCC3)n2)ccc1C(=O)N(C)C [13c],fraction unbound,[1],0.19
same,P app A-B,[5],16.2 × 10^–6 cm/s
same,efflux ratio,[5],2.1
same,solubility,Solubility,> 400 µM
same,Kd,GSK-3 [2],2.74 nM
same,Ki,human recombinant GSK3β,4.48 nM
same,IC50,human recombinant GSK3β,5.96 nM
COCCN(C)C(=O)c1ccc(Nc2ncc(F)c(-c3cnc(C)n3C3CCOCC3)n2)cc1C [13d],bioavailability,[4],32.9%
same,half-life,[4],3.65 h
same,IC50,CYP2C9,> 2000 nM
same,fraction unbound,[1],0.26
same,P app A-B,[5],21.9 × 10^–6 cm/s
same,efflux ratio,[5],0.7
same,radioactive accumulation / distribution in autoradiography,"GSK-3β; tritiated ligand, rat brain sections, baseline",lowest level of radioactive accumulation
same,IC50,hERG channel,> 33000 nM
same,Kd,GSK-3 [2],6.46 nM
same,IC50,CYP3A4,> 2000 nM
same,hepatocyte CLint,[3],15.4 µL/min/1e6 cells
same,IC50,CYP2D6,> 2000 nM
same,Ki,human recombinant GSK3β,4.95 nM
same,IC50,human recombinant GSK3β,6.61 nM
same,IC50,CYP1A2,> 2000 nM
same,fraction unbound,Protein binding (% free),0.11
"[11CH3]Oc1ccc(CNC(=O)Nc2ncc([N+](=O)[O-])s2)cc1 [[^11C]1, N-(4-methoxybenzyl)-N′-(5-nitro-1,3-thiazol-2-yl)urea]",blocking of [^3H]13a–13e binding in autoradiography,GSK-3β,significantly reduced the radioactive signal in all the brain regions
[11CH3]N1CCN(S(=O)(=O)c2ccc(-c3cnc(N)c(C(=O)Nc4cccnc4)n3)cc2)CC1 [[^11C]2],brain uptake / BBB penetration in PET studies,GSK-3 [6],poor brain uptake in rodents and nonhuman primates
Cc1nnc(-c2ccc3occ(-c4ccc(S[11CH3])cc4)c3c2)o1 [[^11C]3],IC50,GSK-3 [7],66 nM
Cc1nnc(-c2ccc3occ(-c4ccc([S+]([11CH3])[O-])cc4)c3c2)o1 (centres unmarked) [[^11C]4],IC50,GSK-3 [7],35 nM
Cc1nnc(-c2ccc3occ(-c4ccc(S([11CH3])(=O)=O)cc4)c3c2)o1 [[^11C]5],IC50,GSK-3 [7],42 nM
"Cn1cc(C2=C(c3ccc(Cl)cc3Cl)C(=O)NC2=O)c2ccccc21 [[^11C]6, reference compound]",blocking of [^3H]13a–13e binding in autoradiography,GSK-3β,significantly reduced the radioactive signal in all the brain regions
same,brain uptake / BBB penetration in PET studies,GSK-3 [6],first GSK-3 radioligand reported to penetrate the BBB in rodents and NHPs
[11CH3]Oc1ccc(-c2ocnc2C(=O)NCCCn2cncn2)cc1Cl [[^11C]8],brain uptake / BBB penetration in PET studies,GSK-3 [6],promising brain uptake and binding specificity in NHPs
same,IC50,GSK-3 [7],2.1 nM
[11CH3]Oc1ccc2c(NC(=O)Nc3cccc(C(F)(F)F)c3)ccnc2c1 [[^11C]9],Ki,GSK-3 [7],0.6 nM
CCn1cc(C2=C(c3cccc(OCC[18F])c3)C(=O)NC2=O)c2cc(F)ccc21 [[^18F]7],IC50,GSK-3 [7],1.7 nM
